Assay results as given in patent US20240376099A1, “COMPOUNDS AND COMPOSITIONS AS INHIBITORS OF ENDOSOMAL TOLL-LIKE RECEPTORS” (Novartis AG, priority 2016, published 2024).

Molecular target: T1, TLR9 (Homo sapiens, UniProt Q9NR96)
T1 construct: Fresh blood was collected from normal human donors; endogenous in cells; host or cells: human PBMCs from fresh donor blood
T1 sequence (Q9NR96 26-1032): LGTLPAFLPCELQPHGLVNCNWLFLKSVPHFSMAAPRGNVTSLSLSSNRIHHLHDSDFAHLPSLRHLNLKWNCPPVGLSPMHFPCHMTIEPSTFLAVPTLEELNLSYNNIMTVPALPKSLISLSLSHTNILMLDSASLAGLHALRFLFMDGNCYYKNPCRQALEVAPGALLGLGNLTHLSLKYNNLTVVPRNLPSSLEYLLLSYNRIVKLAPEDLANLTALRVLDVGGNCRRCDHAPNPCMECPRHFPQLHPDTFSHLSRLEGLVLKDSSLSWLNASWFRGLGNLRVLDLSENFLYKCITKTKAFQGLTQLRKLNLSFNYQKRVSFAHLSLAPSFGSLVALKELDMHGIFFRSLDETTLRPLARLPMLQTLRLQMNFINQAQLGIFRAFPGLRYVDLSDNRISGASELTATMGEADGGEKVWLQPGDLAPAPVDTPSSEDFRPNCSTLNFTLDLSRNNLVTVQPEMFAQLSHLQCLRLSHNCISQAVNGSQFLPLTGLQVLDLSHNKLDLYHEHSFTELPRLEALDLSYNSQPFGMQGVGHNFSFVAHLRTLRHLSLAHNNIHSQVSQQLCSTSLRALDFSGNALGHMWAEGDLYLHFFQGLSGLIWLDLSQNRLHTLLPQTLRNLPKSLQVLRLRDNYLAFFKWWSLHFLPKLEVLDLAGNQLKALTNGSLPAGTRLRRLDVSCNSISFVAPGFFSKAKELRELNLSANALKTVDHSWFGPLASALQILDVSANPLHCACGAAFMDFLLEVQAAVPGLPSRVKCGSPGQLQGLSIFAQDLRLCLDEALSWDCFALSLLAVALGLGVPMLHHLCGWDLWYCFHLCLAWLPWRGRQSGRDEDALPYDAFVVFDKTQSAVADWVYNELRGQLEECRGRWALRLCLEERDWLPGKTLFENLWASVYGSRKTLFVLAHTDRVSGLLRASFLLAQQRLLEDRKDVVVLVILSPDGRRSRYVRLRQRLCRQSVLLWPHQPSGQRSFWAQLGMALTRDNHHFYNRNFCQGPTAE
Test: huPBMC TLR9 Antagonist IFNα Assay
Type: cell-based
Conditions: human PBMCs stimulated with ODN2216 0.3 μM, 14-16 hrs; IFNα2b AlphaLISA read-out
In short: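 Human PBMCs from fresh donor blood (150,000 cells/well) stimulated 14–16 h at 37 °C with DOTAP-complexed ssRNA40 (final 1 μg/ml for TLR8, 10 μg/mL for TLR7) or ODN2216 (final 0.3 μM, TLR9), 0.25% DMSO, ten-point 1/3 compound dilutions. Supernatant IL-6 read by HTRF (TLR8); IFNα by IFNα2b AlphaLISA (TLR7/TLR9).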

| Compound | IC50 |
| --- | --- |
| Cc1cc(N2CCc3c(c(C)nn3CC34CCC(N5CCO[C@@H](C)C5)(CC3)CC4)C2)c2cnn(C)c2n1 [compound 109, (S)-4-(4-((5-(1,6-dimethyl-1H-pyrazolo[3,4-b]pyridin-4-yl)-3-methyl-4,5,6,7-tetrahydro-1H-pyrazolo[4,3-c]pyridin-1-yl)methyl)bicyclo[2.2.2]octan-1-yl)-2-methylmorpholine] | 515 nM |
| Cc1cc(N2CCc3c(c(C)nn3CC34CCC(N5C[C@@H](C)O[C@@H](C)C5)(CC3)CC4)C2)c2cnn(C)c2n1 [compound 110, (2S,6R)-4-(4-((5-(1,6-dimethyl-1H-pyrazolo[3,4-b]pyridin-4-yl)-3-methyl-4,5,6,7-tetrahydro-1H-pyrazolo[4,3-c]pyridin-1-yl)methyl)bicyclo[2.2.2]octan-1-yl)-2,6-dimethylmorpholine] | 1900 nM |
| Cc1cc(N2CCc3c(c(C)nn3CC34CCC(NCC5CCC5)(CC3)CO4)C2)c2cnn(C)c2n1 [compound 112, N-(cyclobutylmethyl)-1-((5-(1,6-dimethyl-1H-pyrazolo[3,4-b]pyridin-4-yl)-3-methyl-4,5,6,7-tetrahydro-1H-pyrazolo[4,3-c]pyridin-1-yl)methyl)-2-oxabicyclo[2.2.2]octan-4-amine] | 1190 nM |
| Cc1cc(N2CCc3c(c(C)nn3CC34CCC(N5C[C@@H](C)O[C@H](C)C5)(CC3)CC4)C2)c2cnn(C)c2n1 [compound 113, (2R,6R)-4-(4-((5-(1,6-dimethyl-1H-pyrazolo[3,4-b]pyridin-4-yl)-3-methyl-4,5,6,7-tetrahydro-1H-pyrazolo[4,3-c]pyridin-1-yl)methyl)bicyclo[2.2.2]octan-1-yl)-2,6-dimethylmorpholine] | 1410 nM |
| CCNCC(=O)NC12CCC(Cn3nc(C)c4c3CCN(c3cc(C)nc5c3cnn5C)C4)(CC1)CC2 [compound 114, N-(4-((5-(1,6-dimethyl-1H-pyrazolo[3,4-b]pyridin-4-yl)-3-methyl-4,5,6,7-tetrahydro-1H-pyrazolo[4,3-c]pyridin-1-yl)methyl)bicyclo[2.2.2]octan-1-yl)-2-(ethylamino)acetamide] | 1550 nM |
| CN[C@H](C)C(=O)NC12CCC(Cn3nc(C)c4c3CCN(c3cc(C)nc5c3cnn5C)C4)(CC1)CC2 [compound 117, (R)-N-(4-((5-(1,6-dimethyl-1H-pyrazolo[3,4-b]pyridin-4-yl)-3-methyl-4,5,6,7-tetrahydro-1H-pyrazolo[4,3-c]pyridin-1-yl)methyl)bicyclo[2.2.2]octan-1-yl)-2-(methylamino)propanamide] | 954 nM |
| CN[C@@H](C)C(=O)NC12CCC(Cn3nc(C)c4c3CCN(c3cc(C)nc5c3cnn5C)C4)(CC1)CC2 [compound 118] | 775 nM |
| CNCC(=O)NC12CCC(Cn3nc(C)c4c3CCN(c3cc(C)nc5c3cnn5C)C4)(CC1)CC2 [compound 121, N-(4-((5-(1,6-dimethyl-1H-pyrazolo[3,4-b]pyridin-4-yl)-3-methyl-4,5,6,7-tetrahydro-1H-pyrazolo[4,3-c]pyridin-1-yl)methyl)bicyclo[2.2.2]octan-1-yl)-2-(methylamino)acetamide] | 1440 nM |
| Cc1cc(N2CCc3c(c(C)nn3CC34CCC(NCC(C)(C)O)(CC3)CC4)C2)c2cnn(C)c2n1 [compound 123, 1-((4-((5-(1,6-dimethyl-1H-pyrazolo[3,4-b]pyridin-4-yl)-3-methyl-4,5,6,7-tetrahydro-1H-pyrazolo[4,3-c]pyridin-1-yl)methyl)bicyclo[2.2.2]octan-1-yl)amino)-2-methylpropan-2-ol] | 2230 nM |
| CCNCC(=O)NC12CCC(Cn3nc(C)c4c3CCN(c3cc(C)nc5cn[nH]c35)C4)(CC1)CC2 [compound 124, 2-(ethylamino)-N-(4-((3-methyl-5-(5-methyl-1H-pyrazolo[4,3-b]pyridin-7-yl)-4,5,6,7-tetrahydro-1H-pyrazolo[4,3-c]pyridin-1-yl)methyl)bicyclo[2.2.2]octan-1-yl)acetamide] | > 10000 nM |
| Cc1cc(N2CCc3c(c(C)nn3CC34CCC(NC(=O)C5CNCCO5)(CC3)CC4)C2)c2cnn(C)c2n1 (stereo not drawn) [compound 125, N-(4-((5-(1,6-dimethyl-1H-pyrazolo[3,4-b]pyridin-4-yl)-3-methyl-4,5,6,7-tetrahydro-1H-pyrazolo[4,3-c]pyridin-1-yl)methyl)bicyclo[2.2.2]octan-1-yl)morpholine-2-carboxamide] | 909 nM |
| COCCNC12CCC(Cn3nc(C)c4c3CCN(c3ccnc(-c5ccccc5)c3)C4)(CC1)CC2 [compound 130, N-(2-methoxyethyl)-4-((3-methyl-5-(2-phenylpyridin-4-yl)-4,5,6,7-tetrahydro-1H-pyrazolo[4,3-c]pyridin-1-yl)methyl)bicyclo[2.2.2]octan-1-amine] | 672 nM |
| Cc1cc(N2CCc3c(c(C)nn3CC34CCC(NC(=O)C5CNC5)(CC3)CC4)C2)c2cnn(C)c2n1 [compound 131, N-(4-((5-(1,6-dimethyl-1H-pyrazolo[3,4-b]pyridin-4-yl)-3-methyl-4,5,6,7-tetrahydro-1H-pyrazolo[4,3-c]pyridin-1-yl)methyl)bicyclo[2.2.2]octan-1-yl)azetidine-3-carboxamide] | > 10000 nM |

Now from value to molecule:

| IC50 | Compound |
| --- | --- |
| 1410 nM | Cc1cc(N2CCc3c(c(C)nn3CC34CCC(N5C[C@H](C)O[C@@H](C)C5)(CC3)CC4)C2)c2cnn(C)c2n1 [compound 111, (2S,6S)-4-(4-((5-(1,6-dimethyl-1H-pyrazolo[3,4-b]pyridin-4-yl)-3-methyl-4,5,6,7-tetrahydro-1H-pyrazolo[4,3-c]pyridin-1-yl)methyl)bicyclo[2.2.2]octan-1-yl)-2,6-dimethylmorpholine] |
| > 10000 nM | Cc1cc(N2CCc3c(c(C)nn3CC34CCC(NC(=O)CCN)(CC3)CC4)C2)c2cnn(C)c2n1 [compound 115, 3-amino-N-(4-((5-(1,6-dimethyl-1H-pyrazolo[3,4-b]pyridin-4-yl)-3-methyl-4,5,6,7-tetrahydro-1H-pyrazolo[4,3-c]pyridin-1-yl)methyl)bicyclo[2.2.2]octan-1-yl)propanamide] |
| 1570 nM | Cc1cc(N2CCc3c(c(C)nn3CC34CCC(N5CC6(COC6)C5)(CC3)CC4)C2)c2cnn(C)c2n1 [compound 116, 6-(4-((5-(1,6-dimethyl-1H-pyrazolo[3,4-b]pyridin-4-yl)-3-methyl-4,5,6,7-tetrahydro-1H-pyrazolo[4,3-c]pyridin-1-yl)methyl)bicyclo[2.2.2]octan-1-yl)-2-oxa-6-azaspiro[3.3]heptane] |
| 9530 nM | CCNCCC(=O)NC12CCC(Cn3nc(C)c4c3CCN(c3cc(C)nc5c3cnn5C)C4)(CC1)CC2 [compound 126, N-(4-((5-(1,6-dimethyl-1H-pyrazolo[3,4-b]pyridin-4-yl)-3-methyl-4,5,6,7-tetrahydro-1H-pyrazolo[4,3-c]pyridin-1-yl)methyl)bicyclo[2.2.2]octan-1-yl)-3-(ethylamino)propanamide] |
| 545 nM | CCNC12CCC(Cn3nc(C)c4c3CCN(c3ccnc(-c5ccccc5)c3)C4)(CC1)CC2 [compound 127, N-ethyl-4-((3-methyl-5-(2-phenylpyridin-4-yl)-4,5,6,7-tetrahydro-1H-pyrazolo[4,3-c]pyridin-1-yl)methyl)bicyclo[2.2.2]octan-1-amine] |
| 792 nM | Cc1cc(N2CCc3c(c(C)nn3CC34CCC(N5CCOC[C@@H]5C)(CC3)CC4)C2)c2cnn(C)c2n1 [compound 128, (S)-4-(4-((5-(1,6-dimethyl-1H-pyrazolo[3,4-b]pyridin-4-yl)-3-methyl-4,5,6,7-tetrahydro-1H-pyrazolo[4,3-c]pyridin-1-yl)methyl)bicyclo[2.2.2]octan-1-yl)-3-methylmorpholine] |
| 1050 nM | Cc1cc(N2CCc3c(c(C)nn3CC34CCC(N5CCOC[C@H]5C)(CC3)CC4)C2)c2cnn(C)c2n1 [compound 129, (R)-4-(4-((5-(1,6-dimethyl-1H-pyrazolo[3,4-b]pyridin-4-yl)-3-methyl-4,5,6,7-tetrahydro-1H-pyrazolo[4,3-c]pyridin-1-yl)methyl)bicyclo[2.2.2]octan-1-yl)-3-methylmorpholine] |
| 260 nM | CCN(C)CC(=O)NC12CCC(Cn3nc(C)c4c3CCN(c3cc(C)nc5c3cnn5C)C4)(CC1)CC2 [compound 132, N-(4-((5-(1,6-dimethyl-1H-pyrazolo[3,4-b]pyridin-4-yl)-3-methyl-4,5,6,7-tetrahydro-1H-pyrazolo[4,3-c]pyridin-1-yl)methyl)bicyclo[2.2.2]octan-1-yl)-2-(ethyl(methyl)amino)acetamide] |
